Measured values as given in patent publication US12472208B2 (priority 2013, dated 2025).

Tests used:
[1] = test system: DNA; settings: cited from earlier work
[2] = test system: bronchitis, colds, or flu; settings: in vivo
[3] = test system: subject
[4] = test system: illness spreading through the player population; settings: over 300 players, 2014 training period, about 4 hours per day, PHPG about 0.3 ppm; historically two to five players miss three to four days per week
[5] = test system: cold, flu, or other respiratory illness; settings: in vivo

In the case of `N#CSO` [OSCN−, hypothiocyanate], the mutagenicity / safety [1] is listed as “non-mutagenic”.

In the case of `OO` [PHPG, hydrogen peroxide], the “occurrence of bronchitis, colds, or flu” value [2] is reported as “did not suffer bronchitis, colds, or flu”, the “adverse effects of exposure” value ([3]; continuous exposure) is reported as “no adverse effects” and the toxicity ([3]; levels up to 7 ppm) is reported as “non-toxic”. For the same molecule, the “players missing training days due to illness during spring training” value [4] was “only one player missed one training day due to illness” and the “subjects contracting cold, flu, or other respiratory illness” value [5] was “none of the subjects contracted cold, flu, or other respiratory illness”.
